In patent publication US20260034135A1, “USE OF N6-BENZYLAMINOPURINE AS AN APPETITE SUPPRESSANT” (THE GOVERNING COUNCIL OF THE UNIVERSITY OF TORONTO, priority 2022, published 2026):

Key:
[1] = tested on: insulin receptor subunit beta (InsRb); experiment: Insulin receptor subunit beta protein level by Western blot in mHypoE-46; type: cell-based, mouse
Description: mHypoE-46 cells were serum starved in 5.5 mM glucose (LG) DMEM for 1 hour prior to treatment with vehicle (0.1% DMSO), 100 µM BAP or H20, […] 5-Aminoimidazole-4-carboxamide ribonucleotide (AICAR) or 0 mM glucose DMEM. Protein was harvested using 1× cell lysis buffer (Cell Signaling Technologies, Inc, CST) containing protease and phosphatase inhibitors. A total of 30 μg protein was separated on a 12% SDS-polyacrylamide gels and transferred onto PVDF membranes. Membranes were blocked in 5% milk dissolved in Tris-buffered saline with Tween 20 (TBS-T) for 1 h and incubated with primary antibody overnight at 4° C. phospho-AMPKα (Thr172; cat. 2532S, CST), and total AMPKα (cat. 2535S, CST); phospho-p70-S6K (Thr389; cat. 9205S, CST) and total p70-S6K (cat. 9202S, CST); insulin receptor ß (cat. 3025S, CST); phospho-AKT (Ser473; cat. 9271S, CST) and total AKT (cat. 9272S, CST); phospho-ERK1/2 (Thr202/Tyr204; cat. 9101, CST) and total ERK (cat. 4695, CST) were diluted 1:1000 in 5% milk in TBS-T. Membranes were washed and incubated with secondary HRP-linked antirabbit antibody (1:7500 in 5% milk in TBS-T, CST) for 1 h, washed, and imaged using the Signal Fire ECL Reagent (CST) on the iBright 1500 Imaging System (Thermofisher). Protein density was quantified using ImageJ or the iBright Imaging System.
The mHypoE-46 neurons were exposed to […] BAP for 16 h followed by RNA isolation. […]

P2 receptors = conditions: rats, via P2 receptors, modifying intracellular calcium levels and cGMP; cited from earlier work
[2] = tested on: mHypoA-Bmal1-WT/F cell line; experiment: Gene expression by qRT-PCR in mHypoA-Bmal1-WT/F hypothalamic cell line; type: cell-based, mouse; conditions: 100 μM BAP, 16 hr
Description: (§1) Hypothalamic neurons from embryonic and adult mice were previously immortalized to generate the clonal cell lines mHypoE-46, mHypoE-44, mHypoE-41, mHypoE-38, mHypoA-59, a FAC-sorted POMC/GFP mouse-derived cell line, mHypoA-POMC/GFP-2, and a mixed culture mHypoA-Bmal1-WT/F cell line (6, 13, 14). The mHypoE-46, mHypoE-44, and mHypoA-Bmal1-WT/F lines were cultured in DMEM containing 1000 mg/L glucose supplemented with 5% FBS and 1% pen/strep. The mHypoE-41, mHypoE-38, and mHypoA-59 cell lines were cultured in DMEM containing 4500 mg/L glucose supplemented with 2% FBS and 1% pen/strep. The mHypoA-POMC/GFP-2 line was cultured in DMEM containing 1000 mg/L glucose supplemented with 2% FBS and 1% pen/strep. All cells were maintained in 5% CO2 at 37° C. BAP was initially dissolved in DMSO solvent (vehicle control) to achieve 1000x the intended dose. The BAP solution was then diluted 1:1000 with the growth media used for the cell line. For co-treatment experiments, the vehicle control for ATP, UDP, and PKI was water, and for the H89 PKA inhibitor was DMSO. Neuropeptide gene expression levels were determined by qRT-PCR.
For cell culture experiments, total RNA was isolated using PureLink RNA isolation kit (Thermofisher Scientific, Burlington, ON, Canada) according to the manufacturer's instruction with on column DNase step (PureLink DNAse kit) or DNase I treatment to remove genomic DNA. […] RNA quality and quantity were measured using Nanodrop 2000 and 500-1000 ng of complimentary DNA (cDNA) was synthesized with High Capacity cDNA Reverse Transcription kit (Applied biosystems, Thermofisher Scientific). Quantitative reverse transcription polymerase chain reaction (RT-qPCR) was performed with 12.5 ng of cDNA amplified with Platinum SYBR green qPCR SuperMix-UDG with ROX on an Applied Biosystems Prism 7900HT or PowerTrack Green Master Mix on an Applied Biosystems QuantStudio 5 and gene specific primers as per manufacturer's instructions (Table 1). Data was analyzed using […] and normalized to reference gene, either 60S ribosomal protein L7 (Rpl7) or Histone 3a (His).

mHypoE-46 cell line = experiment: Gene expression by qRT-PCR in mHypoE-46 hypothalamic cell line; type: cell-based, mouse; parameters: insulin receptor subunit beta (Insrb) expression by qRT-PCR: dose or concentration left out as unconfirmed; conditions: for effect of PKA inhibition on BAP effect on Npy expression: n=2
Description: as §1
For cell culture experiments, total RNA was isolated using PureLink RNA isolation kit (Thermofisher Scientific, Burlington, ON, Canada) according to the manufacturer's instruction with on column DNase step (PureLink DNAse kit) or DNase I treatment to remove genomic DNA. For mouse experiments, total RNA was isolated using mirVana PARIS RNA and native protein isolation kit (Thermofisher Scientific). RNA quality and quantity were measured using Nanodrop 2000 and 500-1000 ng of complimentary DNA (cDNA) was synthesized with High Capacity cDNA Reverse Transcription kit (Applied biosystems, Thermofisher Scientific). Quantitative reverse transcription polymerase chain reaction (RT-qPCR) was performed with 12.5 ng of cDNA amplified with Platinum SYBR green qPCR SuperMix-UDG with ROX on an Applied Biosystems Prism 7900HT or PowerTrack Green Master Mix on an Applied Biosystems QuantStudio 5 and gene specific primers as per manufacturer's instructions (Table 1). Data was analyzed using […] and normalized to reference gene, either 60S ribosomal protein L7 (Rpl7) or Histone 3a (His).

[3] = rats fed BAP for 13 weeks, EPA study, no data shown; cited from earlier work
ERK1/2 = ERK1/2 (Thr202/Tyr204) phosphorylation by Western blot in mHypoE-46; type: cell-based, mouse; conditions: 100 μM BAP, 5 minutes
Description: mHypoE-46 cells were serum starved in 5.5 mM glucose (LG) DMEM for 1 hour prior to treatment with vehicle (0.1% DMSO), 100 µM BAP or H20, […] 5-Aminoimidazole-4-carboxamide ribonucleotide (AICAR) or 0 mM glucose DMEM. Protein was harvested using 1× cell lysis buffer (Cell Signaling Technologies, Inc, CST) containing protease and phosphatase inhibitors. A total of 30 μg protein was separated on a 12% SDS-polyacrylamide gels and transferred onto PVDF membranes. […] Protein density was quantified using ImageJ or the iBright Imaging System.
We also assessed the activity of another key signal transduction cascade, the MAPK ERK1/2 pathway. mHypoE-46 neurons were treated with 100 μM BAP and vehicle control for 5 minutes followed by protein isolation and Western blot analysis. The phosphorylation level of ERK1/2, one of the MAPK family members, was assessed.

B16 melanoma cells = conditions: protein kinase A-dependent manner; cited from earlier work
mHypoE-38 cell line = experiment: Gene expression by qRT-PCR in mHypoE-38 hypothalamic cell line; type: cell-based, mouse; conditions: 100 μM BAP, 16 hr
Description: as §1, with “All cells were maintained in 5% CO2 at 37° C. BAP was initially dissolved in DMSO solvent (vehicle control) to achieve 1000x the intended dose. The BAP solution was then diluted 1:1000 with the growth media used for the cell line. For co-treatment experiments, the vehicle control for ATP, UDP, and PKI was water, and for the H89 PKA inhibitor was DMSO.” left out
For cell culture experiments, total RNA was isolated using PureLink RNA isolation kit (Thermofisher Scientific, Burlington, ON, Canada) according to the manufacturer's instruction with on column DNase step (PureLink DNAse kit) or DNase I treatment to remove genomic DNA. […] RNA quality and quantity were measured using Nanodrop 2000 and 500-1000 ng of complimentary DNA (cDNA) was synthesized with High Capacity cDNA Reverse Transcription kit (Applied biosystems, Thermofisher Scientific). […] Data was analyzed using […] and normalized to reference gene, either 60S ribosomal protein L7 (Rpl7) or Histone 3a (His).

[4] = 100 μM BAP, validation of RNAseq (FIG. 42A 4 hr, 42B 16 hr)

c1ccc(CNc2ncnc3nc[nH]c23)cc1 [BAP, N6-benzylaminopurine]
InsR protein level in response to cellular insulin resistance, BAP relative to vehicle control ([1]; 100 μM BAP 24 h, insulin pre-treatment (100 μM, 24 h)): no change
basal levels of InsRb protein ([1]; 100 μM BAP, 24 hours): significantly increased
strength of atrial muscle contractions (P2 receptors): increase the strength of atrial muscle contractions
Agrp mRNA expression [2]: increased
Npy mRNA expression [2]: supressed
Pomc expression [2]: significantly induced
effect of PKA inhibition on BAP effect on Npy expression (mHypoE-46 cell line; 100 μM BAP + 1 μM H89, 16 hr): unable to block the effects of BAP on Npy expression
effect of PKA inhibition on BAP effect on Npy expression (mHypoE-46 cell line; 100 μM BAP + 10 μM PKI, 16 hr): unable to block the effects of BAP on Npy expression
Npy expression under co-treatment with palmitate (mHypoE-46 cell line; 100 μM BAP + 50 μM palmitate, 16 hr): rescues the palmitate-mediated increase in Npy expression
Npy mRNA under co-treatment with ATP (mHypoE-46 cell line; 100 μM BAP + 100 μM ATP, 16 hr): overcome this induction and supress Npy mRNA levels
Npy mRNA under co-treatment with UDP (mHypoE-46 cell line; 100 μM BAP + 100 μM UDP, 16 hr): still able to supress the gene
Npy mRNA under co-treatment with UTP (mHypoE-46 cell line; 100 μM BAP + 100 μM UTP, 16 hr, n=2 preliminary): still able to supress the gene
PI3K subunit (Pik3r1) gene expression (mHypoE-46 cell line; 100 μM BAP, 4 and 16 h): significantly increased
Nadpk1 expression level (mHypoE-46 cell line; 100 μM BAP, 16 h): significantly decreased
Nadpk2 expression level (mHypoE-46 cell line; 100 μM BAP, 16 h): not changed
Agrp mRNA expression (mHypoE-46 cell line; 100 μM BAP, 16 hr): increased
Npy mRNA expression (mHypoE-46 cell line; 100 μM BAP, 16 hr): supressed
4e-BP1 (Eif4ebp1) gene expression (mHypoE-46 cell line; [4]): increased
ULK1 (Ulk1) gene expression (mHypoE-46 cell line; [4]): increased
sestrin2 (Sesn2) gene expression (mHypoE-46 cell line; [4]): increased
tuberous sclerosis complex 2 (Tsc2) gene expression (mHypoE-46 cell line; [4]): increased
Npy mRNA expression, time course (mHypoE-46 cell line; 100 μM BAP, all time points tested: 2, 4, 8, 16, and 24 hr): significantly downregulate
insulin receptor subunit beta (Insrb) expression by qRT-PCR (mHypoE-46 cell line; BAP, 16 h): increased
BAP dose at which magnitude of Npy downregulation plateaus (mHypoE-46 cell line; dose curve, 16 hr): 250 µM
lowest BAP concentration significantly decreasing Npy mRNA expression (mHypoE-46 cell line; dose curve, 16 hr): 50 µM
food intake [3]: reduced
weight gain [3]: reduced
ERK1/2 phosphorylation at Thr202/Tyr204 (ERK1/2): significantly decreased
melanogenesis (B16 melanoma cells): induce melanogenesis
Agrp mRNA expression (mHypoE-38 cell line): increased
Npy mRNA expression (mHypoE-38 cell line): no effect
